Data reported in paper PMC9062151, “GVS-12 attenuates non-alcoholic steatohepatitis by suppressing inflammatory responses via PPARγ/STAT3 signaling pathways” (RSC Advances, 2019).

Target: T1, PPARγ (peroxisome proliferator-activated receptor γ) (Homo sapiens, UniProt P37231)
T1 construct: gene PPARG; PPARγ-LBD
T1 sequence (P37231 235-505 limits assumed): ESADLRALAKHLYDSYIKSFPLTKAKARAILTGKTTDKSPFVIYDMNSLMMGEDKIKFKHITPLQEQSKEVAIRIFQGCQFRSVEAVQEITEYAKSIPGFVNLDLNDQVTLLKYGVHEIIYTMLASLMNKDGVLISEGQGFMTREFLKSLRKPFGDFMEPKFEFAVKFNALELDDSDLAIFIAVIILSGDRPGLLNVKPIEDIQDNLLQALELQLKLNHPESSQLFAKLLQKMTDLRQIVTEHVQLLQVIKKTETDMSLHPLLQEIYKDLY
Experiment: LanthaScreen TR-FRET PPARγ competitive binding assay; supported by PPARγ reporter gene activation in HepG2 cells

Ki: 320 nM
Structure (SMILES): O=C(NCc1ccco1)c1ccc(OCc2ccc(C(F)(F)F)cc2)cc1 [GVS-12]
